# Measured values reported in US11746100B2 (GLOBAL BLOOD THERAPEUTICS, INC., priority 2020, dated 2023).
# Target: T1, human ferroportin (Homo sapiens, UniProt Q9NP59)
# T1 construct: luciferase reporter (read with the Nano-Glo Luciferase Assay System); expressed in transfected cells; host or cells: CHO cells, stably transfected, expression induced with doxycycline
# T1 sequence (Q9NP59 1-571): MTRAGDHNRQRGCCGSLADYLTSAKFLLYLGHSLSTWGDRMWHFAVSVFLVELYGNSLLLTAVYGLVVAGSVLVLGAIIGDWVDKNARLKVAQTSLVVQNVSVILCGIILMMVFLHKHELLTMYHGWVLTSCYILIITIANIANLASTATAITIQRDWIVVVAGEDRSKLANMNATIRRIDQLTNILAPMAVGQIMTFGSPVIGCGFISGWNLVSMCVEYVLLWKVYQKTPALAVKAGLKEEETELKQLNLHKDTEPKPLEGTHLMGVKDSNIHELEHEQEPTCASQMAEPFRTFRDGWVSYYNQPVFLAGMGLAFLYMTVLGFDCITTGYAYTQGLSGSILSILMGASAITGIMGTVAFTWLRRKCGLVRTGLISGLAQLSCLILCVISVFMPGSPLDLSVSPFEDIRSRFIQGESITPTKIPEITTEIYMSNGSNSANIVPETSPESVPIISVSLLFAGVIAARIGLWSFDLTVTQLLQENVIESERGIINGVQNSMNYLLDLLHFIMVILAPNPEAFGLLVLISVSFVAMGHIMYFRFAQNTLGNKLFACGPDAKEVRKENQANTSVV
# Experiment: Biological in-vitro ferroportin internalization assay (luciferase reporter)
# Assay type: cell-based
# Conditions: average pEC50; stably-transfected CHO cell line expressing human ferroportin tagged to a luciferase reporter; 6 h incubation with test compound
# How it was run: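 Read-out is Nano-Glo luciferase signal after 6 h compound exposure, with average pEC50 derived. Cells are a stable CHO line carrying luciferase-tagged human ferroportin, pre-loaded 24 h with ferric ammonium citrate and doxycycline-induced for 24 h.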
row,SMILES,pEC50
1,"CN(CC(=O)NC1CCOC1)c1nc(-c2cc(OCCO)ccn2)nc2c1CCC2 (stereo not shown) [Compound 149, 2-({2-[4-(2-hydroxyethoxy)pyridin-2-yl]-5H,6H,7H-cyclopenta[d]pyrimidin-4-yl}(methyl)amino)-N-(oxolan-3-yl)acetamide]",7.2
2,"COc1ccnc(-c2nc3c(c(N(C)CC(=O)Nc4ccc(OC)nc4)n2)CCC3)c1 [Compound 151, 2-{[2-(4-methoxypyridin-2-yl)-5H,6H,7H-cyclopenta[d]pyrimidin-4-yl](methyl)amino}-N-(6-methoxypyridin-3-yl)acetamide]",8.1
3,"COc1ccc(NC(=O)CN(C)c2nc(-c3cc(OC)ccn3)nc3c2CCC3)nc1 [Compound 152, N-(5-methoxypyridin-2-yl)-2-{[2-(4-methoxypyridin-2-yl)-5H,6H,7H-cyclopenta[d]pyrimidin-4-yl](methyl)amino}acetamide]",7.9
4,"COc1ccnc(-c2nc3c(c(N(C)CC(=O)N(C)C(C)(C)C)n2)CCC3)c1 [Compound 156, N-tert-butyl-2-{[2-(4-methoxypyridin-2-yl)-5H,6H,7H-cyclopenta[d]pyrimidin-4-yl](methyl)amino}-N-methylacetamide]",7.9
5,"COc1ccnc(-c2nc3c(c(N(C)CC(=O)N(C)C)n2)CCC3)c1 [Compound 157, 2-{[2-(4-methoxypyridin-2-yl)-5H,6H,7H-cyclopenta[d]pyrimidin-4-yl](methyl)amino}-N,N-dimethylacetamide]",7.3
6,"CN(CC(=O)NC(C)(C)C)c1nc(-c2cc(OCC3CC3)ccn2)nc2c1CCC2 [Compound 159, N-tert-butyl-2-({2-[4-(cyclopropylmethoxy)pyridin-2-yl]-5H,6H,7H-cyclopenta[d]pyrimidin-4-yl}(methyl)amino)acetamide]",8.0
7,"CN(CC(=O)NC(C)(C)C)c1nc(-c2ccn(C)n2)nc2c1CCC2 [Compound 160, N-tert-butyl-2-{methyl[2-(1-methyl-1H-pyrazol-3-yl)-5H,6H,7H-cyclopenta[d]pyrimidin-4-yl]amino}acetamide]",5.2
8,"CN(CC(=O)NC(C)(C)C)c1nc(-c2nccn2C)nc2c1CCC2 [Compound 162, N-tert-butyl-2-{methyl[2-(1-methyl-1H-imidazol-2-yl)-5H,6H,7H-cyclopenta[d]pyrimidin-4-yl]amino}acetamide]",5.7
9,"CN(CC(=O)NC(C)(C)C)c1nc(-c2cocn2)nc2c1CCC2 [Compound 163, N-tert-butyl-2-{methyl[2-(1,3-oxazol-4-yl)-5H,6H,7H-cyclopenta[d]pyrimidin-4-yl]amino}acetamide]",5.4
10,"CN(CC(=O)NC(C)(C)C)c1nc(-c2cn3ccccc3n2)nc2c1CCC2 [Compound 166, N-tert-butyl-2-[(2-{imidazo[1,2-a]pyridin-2-yl}-5H,6H,7H-cyclopenta[d]pyrimidin-4-yl)(methyl)amino]acetamide]",6.7
11,"CN(CC(=O)Nc1cccc(F)c1)c1nc(-c2cc(OCCO)ccn2)nc2c1CCC2 [Compound 167, N-(3-fluorophenyl)-2-({2-[4-(2-hydroxyethoxy)pyridin-2-yl]-5H,6H,7H-cyclopenta[d]pyrimidin-4-yl}(methyl)amino)acetamide]",7.9
12,"CN(CC(=O)NC(C)(C)C)c1nc(-c2cc(OCC(C)(C)O)ccn2)nc2c1CCC2 [Compound 174, N-tert-butyl-2-({2-[4-(2-hydroxy-2-methylpropoxy)pyridin-2-yl]-5H,6H,7H-cyclopenta[d]pyrimidin-4-yl}(methyl)amino)acetamide]",8.2
13,"CN(CC(=O)Nc1cnn(C)c1)c1nc(-c2cc(OCC(F)(F)F)ccn2)nc2c1CCC2 [Compound 177, 2-[methyl({2-[4-(2,2,2-trifluoroethoxy)pyridin-2-yl]-5H,6H,7H-cyclopenta[d]pyrimidin-4-yl})amino]-N-(1-methyl-1H-pyrazol-4-yl)acetamide]",6.9
14,"COc1cccnc1-c1nc2c(c(N(C)CC(=O)NC(C)(C)C)n1)CCC2 [Compound 180, N-tert-butyl-2-{[2-(3-methoxypyridin-2-yl)-5H,6H,7H-cyclopenta[d]pyrimidin-4-yl](methyl)amino}acetamide]",5.2
15,"CN(CC(=O)NC(C)(C)C)c1nc(-c2ncccc2O)nc2c1CCC2 [Compound 181, N-tert-butyl-2-{[2-(3-hydroxypyridin-2-yl)-5H,6H,7H-cyclopenta[d]pyrimidin-4-yl](methyl)amino}acetamide]",6.5
16,"CN(CC(=O)NC(C)(C)C)c1nc(-c2c[nH]cn2)nc2c1CCC2 [Compound 182, N-tert-butyl-2-{[2-(1H-imidazol-4-yl)-5H,6H,7H-cyclopenta[d]pyrimidin-4-yl](methyl)amino}acetamide]",7.6

# Other lines, results leading:
row,pEC50,SMILES
1,7.3,"CN(CC(=O)NC1CCCC1)c1nc(-c2cn(C)cn2)nc2c1CCC2 [Compound 150, N-cyclopentyl-2-{methyl[2-(1-methyl-1H-imidazol-4-yl)-5H,6H,7H-cyclopenta[d]pyrimidin-4-yl]amino}acetamide]"
2,7.6,"COc1ccnc(-c2nc3c(c(N(C)CC(=O)Nc4cnc(OC)nc4)n2)CCC3)c1 [Compound 153, 2-{[2-(4-methoxypyridin-2-yl)-5H,6H,7H-cyclopenta[d]pyrimidin-4-yl](methyl)amino}-N-(2-methoxypyrimidin-5-yl)acetamide]"
3,7.4,"COc1ccnc(-c2nc3c(c(N(C)CC(=O)Nc4cnn(C)c4)n2)CCC3)c1 [Compound 154, 2-{[2-(4-methoxypyridin-2-yl)-5H,6H,7H-cyclopenta[d]pyrimidin-4-yl](methyl)amino}-N-(1-methyl-1H-pyrazol-4-yl)acetamide]"
4,7.5,"COc1ccnc(-c2nc3c(c(N(C)CC(=O)NC4(C)CCCC4)n2)CCC3)c1 [Compound 155, 2-{[2-(4-methoxypyridin-2-yl)-5H,6H,7H-cyclopenta[d]pyrimidin-4-yl](methyl)amino}-N-(1-methylcyclopentyl)acetamide]"
5,6.2,"CN(CC(=O)NC(C)(C)C)c1nc(-c2cc(C#N)ccn2)nc2c1CCC2 [Compound 158, N-tert-butyl-2-{[2-(4-cyanopyridin-2-yl)-5H,6H,7H-cyclopenta[d]pyrimidin-4-yl](methyl)amino}acetamide]"
6,7.4,"CN(CC(=O)NC1(C)CCCC1)c1nc(-c2cn(C)cn2)nc2c1CCC2 [Compound 161, 2-{methyl[2-(1-methyl-1H-imidazol-4-yl)-5H,6H,7H-cyclopenta[d]pyrimidin-4-yl]amino}-N-(1-methylcyclopentyl)acetamide]"
7,7.4,"CN(CC(=O)NC(C)(C)C)c1nc(-c2cc3ccccc3cn2)nc2c1CCC2 [Compound 165, N-tert-butyl-2-{[2-(isoquinolin-3-yl)-5H,6H,7H-cyclopenta[d]pyrimidin-4-yl](methyl)amino}acetamide]"
8,7.3,"COc1ccnc(-c2nc3c(c(N(C)CC(=O)N[C@H]4CCCC[C@H]4O)n2)CCC3)c1 [Compound 169, N-[(1S,2R)-2-hydroxycyclohexyl]-2-{[2-(4-methoxypyridin-2-yl)-5H,6H,7H-cyclopenta[d]pyrimidin-4-yl](methyl)amino}acetamide]"
9,7.2,"COc1ccnc(-c2nc3c(c(N(C)CC(=O)N[C@H]4CCC[C@H]4O)n2)CCC3)c1 [Compound 171, N-[(1S,2R)-2-hydroxycyclopentyl]-2-{[2-(4-methoxypyridin-2-yl)-5H,6H,7H-cyclopenta[d]pyrimidin-4-yl](methyl)amino}acetamide]"
10,7.8,"CN(CC(=O)NC(C)(C)C)c1nc(-c2cc3[nH]ncc3cn2)nc2c1CCC2 [Compound 176, N-tert-butyl-2-[methyl(2-{1H-pyrazolo[4,3-c]pyridin-6-yl}-5H,6H,7H-cyclopenta[d]pyrimidin-4-yl)amino]acetamide]"
11,7.2,COc1ccnc(-c2nc3c(c(N(C)CC(=O)Nc4cncnc4)n2)CCC3)c1 [Compound 178]
12,7.7,"CN(CC(=O)NC1(C)CCCC1)c1nc(-c2cc(OCCO)ccn2)nc2c1CCC2 [Compound 179, 2-({2-[4-(2-hydroxyethoxy)pyridin-2-yl]-5H,6H,7H-cyclopenta[d]pyrimidin-4-yl}(methyl)amino)-N-(1-methylcyclopentyl)acetamide]"
13,8,"C[C@H](C(=O)NC(C)(C)C)N(C)c1nc(-c2cc3cn[nH]c3cn2)nc2c1CCC2 [Compound 183, (2R)—N-tert-butyl-2-[methyl(2-{1H-pyrazolo[3,4-c]pyridin-5-yl}-5H,6H,7H-cyclopenta[d]pyrimidin-4-yl)amino]propanamide]"
14,7.7,"CN(CC(=O)NC1(C)CCCC1)c1nc(-c2cc3cn[nH]c3cn2)nc2c1CCC2 [Compound 184, 2-[methyl(2-{1H-pyrazolo[3,4-c]pyridin-5-yl}-5H,6H,7H-cyclopenta[d]pyrimidin-4-yl)amino]-N-(1-methylcyclopentyl)acetamide]"
15,7.2,"CN(CC(=O)NC1(C)CCOC1)c1nc(-c2cc3cn[nH]c3cn2)nc2c1CCC2 (stereo not shown) [Compound 185, 2-[methyl(2-{1H-pyrazolo[3,4-c]pyridin-5-yl}-5H,6H,7H-cyclopenta[d]pyrimidin-4-yl)amino]-N-(3-methyloxolan-3-yl)acetamide]"
